Measured values published in ChEMBL document CHEMBL3877316, “Synthesis of pharmacologically important naphthoquinones and anticancer activity of 2-benzyllawsone through DNA topoisomerase-II inhibition” (Bioorg Med Chem, 2017).
Active and inactive are the calls of the source. The calls are words filed in the database; no cut-off is given here.

How the values were obtained:
[1] = Antiproliferative activity against human FADU cells after 48 hrs by SRB assay; format: functional, cell-based
FaDu [2] = experiment: Inhibition of topoisomerase-2 in human FADU cells at 2 times antiproliferative IC50 after 24 hrs by ELISA relative to control; format: cell-based
[3] = Antiproliferative activity against human DLD1 cells after 48 hrs by SRB assay; format: functional, cell-based; settings: DLD-1, 48 h
Mus musculus [4] = experiment: Acute toxicity in Swiss albino mouse assessed as serum haemoglobin level at 50 mg/kg, po qd administered as single dose for 7 days (reference value: 13.29 +/- 0.46 g/dl); format: organism-based; settings: in vivo, 168 h
Mus musculus [5] = experiment: Acute toxicity in Swiss albino mouse assessed as serum SGOT level at 5 mg/kg, po qd administered as single dose for 7 days (reference value: 34.32 +/- 3.78 U/L); format: organism-based; settings: in vivo, 168 h
Mus musculus [6] = experiment: Acute toxicity in Swiss albino mouse assessed as serum WBC level at 1000 mg/kg, po qd administered as single dose for 7 days (reference value: 8.64 +/- 0.42 10^3/mm3); format: organism-based; settings: in vivo, 168 h
[7] = Antiproliferative activity against human MCF7 cells after 48 hrs by SRB assay; format: functional, cell-based; settings: MCF7, 48 h
Mus musculus [8] = experiment: Acute toxicity in Swiss albino mouse assessed as serum creatinine level at 50 mg/kg, po qd administered as single dose for 7 days (reference value: 0.09 +/- 0.01 mg/dl); format: organism-based; settings: in vivo, 168 h
Mus musculus [9] = experiment: Acute toxicity in Swiss albino mouse assessed as body weight at 300 mg/kg, po qd administered as single dose for 7 days (reference value: 27.73 +/- 0.94 g); format: organism-based; settings: in vivo, 168 h
Mus musculus [10] = experiment: Acute toxicity in Swiss albino mouse assessed as serum SGPT level at 50 mg/kg, po qd administered as single dose for 7 days (reference value: 23.06 +/- 1.92 U/L); format: organism-based; settings: in vivo, 168 h
Mus musculus [11] = experiment: Acute toxicity in Swiss albino mouse assessed as serum creatinine level at 1000 mg/kg, po qd administered as single dose for 7 days (reference value: 0.09 +/- 0.01 mg/dl); format: organism-based; settings: in vivo, 168 h
Mus musculus [12] = experiment: Acute toxicity in Swiss albino mouse assessed as serum albumin level at 5 mg/kg, po qd administered as single dose for 7 days (reference value: 2.49 +/- 0.17 g/dl); format: organism-based; settings: in vivo, 168 h
Mus musculus [13] = experiment: Acute toxicity in Swiss albino mouse assessed as serum cholesterol level at 300 mg/kg, po qd administered as single dose for 7 days (reference value: 68.37 +/- 4.42 mg/dl); format: organism-based; settings: in vivo, 168 h
Mus musculus [14] = experiment: Acute toxicity in Swiss albino mouse assessed as changes in relative weight of heart up to 1000 mg/kg, po qd administered as single dose for 7 days; format: organism-based; settings: in vivo, 168 h
Mus musculus [15] = experiment: Acute toxicity in Swiss albino mouse assessed as serum WBC level at 50 mg/kg, po qd administered as single dose for 7 days (reference value: 8.64 +/- 0.42 10^3/mm3); format: organism-based; settings: in vivo, 168 h
Mus musculus [16] = experiment: Acute toxicity in Swiss albino mouse assessed as serum RBC level at 5 mg/kg, po qd administered as single dose for 7 days (reference value: 9.07 +/- 1.13 million/mm3); format: organism-based; settings: in vivo, 168 h
Mus musculus [17] = experiment: Acute toxicity in Swiss albino mouse assessed as body weight at 50 mg/kg, po qd administered as single dose for 7 days (reference value: 27.73 +/- 0.94 g); format: organism-based; settings: in vivo, 168 h
Mus musculus [18] = experiment: Acute toxicity in Swiss albino mouse assessed as changes in absolute weight of brain up to 1000 mg/kg, po qd administered as single dose for 7 days; format: organism-based; settings: in vivo, 168 h
Mus musculus [19] = experiment: Acute toxicity in Swiss albino mouse assessed as serum RBC level at 50 mg/kg, po qd administered as single dose for 7 days (reference value: 9.07 +/- 1.13 million/mm3); format: organism-based; settings: in vivo, 168 h
Mus musculus [20] = experiment: Acute toxicity in Swiss albino mouse assessed as serum ALP level at 1000 mg/kg, po qd administered as single dose for 7 days (reference value: 292.13 +/- 40.29 U/L); format: organism-based; settings: in vivo, 168 h
Mus musculus [21] = experiment: Acute toxicity in Swiss albino mouse assessed as serum SGPT level at 5 mg/kg, po qd administered as single dose for 7 days (reference value: 23.06 +/- 1.92 U/L); format: organism-based; settings: in vivo, 168 h
[22] = Antiproliferative activity against human DU145 cells after 48 hrs by SRB assay; format: functional, cell-based; settings: DU-145, 48 h
Mus musculus [23] = experiment: Acute toxicity in Swiss albino mouse assessed as body weight at 5 mg/kg, po qd administered as single dose for 7 days (reference value: 27.73 +/- 0.94 g); format: organism-based; settings: in vivo, 168 h
[24] = Antiproliferative activity against human A549 cells after 48 hrs by SRB assay; format: functional, cell-based; settings: A549, 48 h
Mus musculus [25] = experiment: Acute toxicity in Swiss albino mouse assessed as changes in response of mouse up to 1000 mg/kg, po qd administered as single dose for 7 days; format: organism-based; settings: in vivo, 168 h
Mus musculus [26] = experiment: Acute toxicity in Swiss albino mouse assessed as changes in relative weight of kidney up to 1000 mg/kg, po qd administered as single dose for 7 days; format: organism-based; settings: in vivo, 168 h
Mus musculus [27] = experiment: Acute toxicity in Swiss albino mouse assessed as serum cholesterol level at 50 mg/kg, po qd administered as single dose for 7 days (reference value: 68.37 +/- 4.42 mg/dl); format: organism-based; settings: in vivo, 168 h
Mus musculus [28] = experiment: Acute toxicity in Swiss albino mouse assessed as changes in absolute weight of liver up to 1000 mg/kg, po qd administered as single dose for 7 days; format: organism-based; settings: in vivo, 168 h
Mus musculus [29] = experiment: Acute toxicity in Swiss albino mouse assessed as serum haemoglobin level at 1000 mg/kg, po qd administered as single dose for 7 days (reference value: 13.29 +/- 0.46 g/dl); format: organism-based; settings: in vivo, 168 h
Mus musculus [30] = experiment: Acute toxicity in Swiss albino mouse assessed as changes in relative weight of brain up to 1000 mg/kg, po qd administered as single dose for 7 days; format: organism-based; settings: in vivo, 168 h
[31] = Antiproliferative activity against HEK293 cells after 48 hrs by SRB assay; format: cell-based; settings: Homo sapiens, HEK293, 48 h
Mus musculus [32] = experiment: Acute toxicity in Swiss albino mouse assessed as effect on basophil count up to 1000 mg/kg, po qd administered as single dose for 7 days; format: organism-based; settings: in vivo, 168 h
Mus musculus [33] = experiment: Acute toxicity in Swiss albino mouse assessed as changes in absolute weight of heart up to 1000 mg/kg, po qd administered as single dose for 7 days; format: organism-based; settings: in vivo, 168 h
Mus musculus [34] = experiment: Acute toxicity in Swiss albino mouse assessed as serum SGOT level at 50 mg/kg, po qd administered as single dose for 7 days (reference value: 34.32 +/- 3.78 U/L); format: organism-based; settings: in vivo, 168 h
Mus musculus [35] = experiment: Acute toxicity in Swiss albino mouse assessed as serum albumin level at 1000 mg/kg, po qd administered as single dose for 7 days (reference value: 2.49 +/- 0.17 g/dl); format: organism-based; settings: in vivo, 168 h
FaDu [36] = experiment: Induction of apoptosis in human FADU cells assessed as increase in PARP cleavage at 5 to 10 uM by Western blot method; format: functional, cell-based
Mus musculus [37] = experiment: Acute toxicity in Swiss albino mouse assessed as effect on eosinophil count up to 1000 mg/kg, po qd administered as single dose for 7 days; format: organism-based; settings: in vivo, 168 h
Mus musculus [38] = experiment: Acute toxicity in Swiss albino mouse assessed as serum albumin level at 50 mg/kg, po qd administered as single dose for 7 days (reference value: 2.49 +/- 0.17 g/dl); format: organism-based; settings: in vivo, 168 h

O=C1C=C(OCc2ccccc2)C(=O)c2ccccc21
IC50 [1]: 5.27 µM | inhibition (FaDu [2]): 36.6% | IC50 [3]: 16.2 µM | Activity (Mus musculus [4]): 13.26 g/dL | Activity (Mus musculus [5]): 38.3 U/L | Activity (Mus musculus [6]): 8.7 ×10³ /mm3 | IC50 [7]: 13.9 µM | Activity (Mus musculus [8]): 0.16 mg/dL | Activity (Mus musculus [9]): 27.09 g | Activity (Mus musculus [10]): 18.02 U/L | Activity (Mus musculus [11]): 0.16 mg/dL | Activity (Mus musculus [12]): 2.56 g/dL | Activity (Mus musculus [13]): 45.62 mg/dL | Activity (Mus musculus [14]): Non-Toxic | Activity (Mus musculus [15]): 8.38 ×10³ /mm3 | Activity (Mus musculus [16]): 8.67 million/mm3 | Activity (Mus musculus [17]): 26.76 g | Activity (Mus musculus [18]): Non-Toxic | Activity (Mus musculus [19]): 8.54 million/mm3 | Activity (Mus musculus [20]): 385.91 U/L | Activity (Mus musculus [21]): 19.16 U/L | IC50 [22]: 10.6 µM | Activity (Mus musculus [23]): 26.34 g | IC50 [24]: 6.83 µM | Activity (Mus musculus [25]): Non-Toxic | Activity (Mus musculus [26]): Non-Toxic | Activity (Mus musculus [27]): 65.13 mg/dL | Activity (Mus musculus [28]): Non-Toxic | Activity (Mus musculus [29]): 13.28 g/dL | Activity (Mus musculus [30]): Non-Toxic | IC50 [31]: > 150 µM | Activity (Mus musculus [32]): Non-Toxic | Activity (Mus musculus [33]): Non-Toxic | Activity (Mus musculus [34]): 30.19 U/L | Activity (Mus musculus [35]): 2.88 g/dL | Activity (FaDu [36]): Active | Activity (Mus musculus [37]): Non-Toxic | Activity (Mus musculus [38]): 2.7 g/dL
